Results as given in patent US12642857B2, “Degradation of AKT by conjugation of ATP-competitive AKT inhibitor GDC-0068 with E3 ligase ligands and methods of use” (DANA-FARBER CANCER INSTITUTE, INC., priority 2019, dated 2026).

Experiments:
[1] = system: phosphorylated PRAS40; assay: Immunoblot of phosphorylated PRAS40 in MCF10A cells; type: cell-based, human; details: 24-hour treatment
Experimental: MDA-MB-468 (human breast cancer cell line) cells were maintained in RPMI 1640 (Wisent Bioproducts) supplemented with 10% FBS (Thermo Fisher Scientific) and MCF10A (human breast epithelial cell line) cells were maintained in Dulbecco's modified Eagle's medium (DMEM)/Ham's F12 (Wisent Bioproducts) supplemented with 5% equine serum (Fisher), insulin (10 μg/ml) (Life Technologies), hydrocortisone (500 ng/ml) (Sigma-Aldrich®), epidermal growth factor (20 ng/ml) (R&D Systems), and cholera toxin (100 ng/ml) (List Biological Lab). MDA-MB-468 and MCF10A cells were seeded at 250,000 cells/mL and 200,000 cells/mL, respectively. The following day cells were treated with inventive bifunctional compounds. After 24 hours, cells were washed with phosphate-buffered saline at 4° C. and lysed in radioimmunoprecipitation assay (RIPA) buffer (150 mM Tris-HCl, 150 mM NaCl, 0.5% (w/v) sodium deoxycholate, 1% (v/v) NP-40, pH 7.5) containing 0.1% (w/v) sodium dodecyl sulfate, 1 mM sodium pyrophosphate, 20 mM sodium fluoride, 50 nM calyculin, and 0.5% (v/v) protease inhibitor cocktail (Sigma-Aldrich®)). Cell extracts were precleared by centrifugation at 14,000 rpm for 10 minutes at 4° C. The Bio-Rad DC protein assay was used to assess protein concentration, and sample concentration was normalized using SDS sample buffer. […] Images were stored and analyzed using ImageStudioTM (LI-COR®) software. […]

[2] = system: phosphorylated PRAS40; assay: Immunoblot of phosphorylated PRAS40 in MDA-MB-468 cells; type: cell-based, human; details: 24-hour treatment
Experimental: MDA-MB-468 (human breast cancer cell line) cells were maintained in RPMI 1640 (Wisent Bioproducts) supplemented with 10% FBS (Thermo Fisher Scientific) and MCF10A (human breast epithelial cell line) cells were maintained in Dulbecco's modified Eagle's medium (DMEM)/Ham's F12 (Wisent Bioproducts) supplemented with 5% equine serum (Fisher), insulin (10 μg/ml) (Life Technologies), hydrocortisone (500 ng/ml) (Sigma-Aldrich®), epidermal growth factor (20 ng/ml) (R&D Systems), and cholera toxin (100 ng/ml) (List Biological Lab). MDA-MB-468 and MCF10A cells were seeded at 250,000 cells/mL and 200,000 cells/mL, respectively. The following day cells were treated with inventive bifunctional compounds. After 24 hours, cells were washed with phosphate-buffered saline at 4° C. and lysed in radioimmunoprecipitation assay (RIPA) buffer (150 mM Tris-HCl, 150 mM NaCl, 0.5% (w/v) sodium deoxycholate, 1% (v/v) NP-40, pH 7.5) containing 0.1% (w/v) sodium dodecyl sulfate, 1 mM sodium pyrophosphate, 20 mM sodium fluoride, 50 nM calyculin, and 0.5% (v/v) protease inhibitor cocktail (Sigma-Aldrich®)). Cell extracts were precleared by centrifugation at 14,000 rpm for 10 minutes at 4° C. The Bio-Rad DC protein assay was used to assess protein concentration, and sample concentration was normalized using SDS sample buffer. […] Images were stored and analyzed using ImageStudioTM (LI-COR®) software.

[3] = system: ZR-75-1 cells; assay: Growth inhibition rate (GR) assay in ZR-75-1 cells; type: cell-based; details: 72-hour treatment (FIG. 6A)
From the text: (§1) FIG. 6A-FIG. 6F are a set of graphs that show growth inhibition rate (GR) values across concentrations in ZR-75-1 (FIG. 6A), T47D (FIG. 6B), LNCaP (FIG. 6C), MCF-7 (FIG. 6D), MDA-MB-468 (FIG. 6E), and HCC1937 (FIG. 6F) cells after 72-hour treatment with GDC-0068 (blue), inventive bifunctional compound 10 (red), bifunctional compound 10-Me (negative control) (green), and lenalidomide (orange). Error bars represent the standard deviation of three technical replicates.

[4] = system: phospho-PRAS40 (T246), phospho-GSK3I3 (S9), phospho-S6 (S240/244); assay: Immunoblot of downstream signaling (pPRAS40, pGSK3, pS6) in T47D and MDA-MB-468 cells; type: cell-based, human
Experimental: Solid vertical white line indicates samples run on separate gels. […] Solid vertical white line indicates samples run on separate gels. Cells were plated at 250,000 cells per mL (MDA-MB-468, MOLT4, IGROV1, PC3, and Jurkat) or 200,000 cells per mL (T47D) in 2 mL per well of RPMI or DMEM media with 10% serum in 6-well treated tissue culture plates (Greiner, Cat #TCG-657160) or 60 mm treated tissue culture plates (Corning®, Cat #430166) and incubated overnight. The next day, cells were treated with the indicated compounds at the appropriate concentration and protein lysates were harvested at the times specified. Cells were washed once in 1×PBS then lysed in RIPA buffer (150 mM Tris-HCl, 150 mM NaCl, 0.5% (w/v) sodium deoxycholate, 1% (v/v) NP-40, pH 7.5) containing 0.1% (w/v) sodium dodecyl sulfate, 1 mM sodium pyrophosphate, 20 mM sodium fluoride, 50 nM calyculin, and 0.5% (v/v) protease inhibitor cocktail (Sigma-Aldrich®) for 15 minutes. Cell extracts were precleared by centrifugation at 14,000 rpm for 10 minutes at 4° C. The Bio-Rad DC protein assay was used to assess protein concentration, and sample concentration was normalized using SDS sample buffer. Lysates were resolved on acrylamide gels by SDS-polyacrylamide gel electrophoresis and electrophoretically transferred to nitrocellulose membrane (BioRad) at 100 volts for 90 minutes. Membranes were blocked in 5% (w/v) nonfat dry milk in tris-buffered saline (TBS) buffer for 1 hour then incubated with specific primary antibodies diluted in 5% (w/v) nonfat dry milk in TBS-T (TBS with 0.05% Tween®-20) at 4° C. overnight, shaking. The next day, membranes were washed with TBS-T then incubated for 1 hour at room temperature with fluorophore-conjugated secondary antibodies (LI-COR® Biosciences). The membrane was washed again with TBS-T then imaged with a LI-COR® Odyssey® CLx Imaging System (LI-COR® Biosciences).

[5] = system: ZR-75-1, T47D, LNCaP, MCF-7 cells; assay: Growth inhibition rate (GR) assay in cell lines sensitive to AKT inhibition; type: cell-based; details: MCF-7, 72-hour treatment (FIG. 6A-6D)
From the text: as §1

[6] = T47D and MDA-MB-468 cells, 250 nM (FIG. 7C-7D)

SMILES: CC(C)NC[C@@H](C(=O)N1CCN(c2ncnc3c2[C@H](C)C[C@H]3O)CC1)c1ccc(Cl)cc1 [GDC-0068]
- Phosphorylated PRAS40 signal [1]: reduction of phosphorylated PRAS40 signal
- Phosphorylated PRAS40 signal [2]: reduction of phosphorylated proline-rich AKT substrate of 40 kDa (PRAS40) signal
- GR50 [3]: comparable GR50 value
- Duration of reduction of pPRAS40 levels [4, 6]: shorter
- Inhibition of pPRAS40 compared with compound 10 [4, 6]: less-pronounced inhibition of pPRAS40
- Phosphorylation of PRAS40, GSK3I3 and S6 ([4]; T47D and MDA-MB-468 cells, 250 nM, 24 hours (FIG. 7A-7B)): weaker responses
- pPRAS40 levels after compound washout ([4]; T47D or MDA-MB-468 cells, 12 h treatment at 250 nM, then washout (FIG. 7E-7F)): rebound of pPRAS40

SMILES: Nc1cccc2c1CN(C1CCC(=O)NC1=O)C2=O (centres unmarked) [lenalidomide]
- Anti-proliferative effects [5]: did not have strong anti-proliferative effects
